Reference: BindingDB's records for doi:10.7270/Q2GH9GBT (Nmmlsc, 2008)
Where a name gives a salt, the structure may show the parent alone.

target: T1, Bcl-2-like protein 10 [11-204] (Homo sapiens, UniProt Q9HD36); experiment: regulators of Bim-Bcl-B binding, dose response, biochemical, multiplexed, bead-based flow cytometry, human (AID 1327); settings: not given
T1 construct: 11-204
T1 sequence (Q9HD36 whole entry): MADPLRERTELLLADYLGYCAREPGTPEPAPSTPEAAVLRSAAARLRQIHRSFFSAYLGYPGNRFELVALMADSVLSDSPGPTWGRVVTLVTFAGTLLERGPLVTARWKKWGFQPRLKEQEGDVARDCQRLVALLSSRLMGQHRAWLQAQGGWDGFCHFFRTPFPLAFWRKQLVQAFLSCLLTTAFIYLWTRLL

Row | SMILES | EC50
1 | Cc1nc2ncccn2c1-c1csc(Nc2ccc(O)cc2)n1 | 0.12 µM
2 | COc1ccc(CC(=O)Nc2ccc(-c3nc4cc(C)ccc4o3)c(O)c2)cc1OC [2-(3,4-dimethoxyphenyl)-N-[(4Z)-3-keto-4-(5-methyl-3H-1,3-benzoxazol-2-ylidene)cyclohexa-1,5-dien-1-yl]acetamide] | 14.8 µM
3 | Nc1ccc(N2CCN(CCCCN3C(=O)C4CCCN4C3=O)CC2)cc1 (stereo unspecified) [2-[4-[4-(4-aminophenyl)-1-piperazinyl]butyl]-5,6,7,7a-tetrahydropyrrolo[1,2-c]imidazole-1,3-dione;hydrate;hydrochloride] | 52.5 µM
4 | COc1ccccc1Cn1nnc2c(=O)[nH]c(C3CCN(C(=O)c4ccc(C)cc4)CC3)nc21 [3-[(2-methoxyphenyl)methyl]-5-[1-(4-methylphenyl)carbonylpiperidin-4-yl]-2H-[1,2,3]triazolo[4,5-d]pyrimidin-7-one] | 12.2 µM
5 | Cc1cc(N)ccc1N1CCCC1 [3-methyl-4-(1-pyrrolidinyl)aniline;hydrochloride] | 2.13 µM
6 | COc1ccccc1Nc1nc(-c2c(C)nc3ncccn23)cs1 [(2-methoxyphenyl)-[4-(2-methylimidazo[1,2-a]pyrimidin-3-yl)thiazol-2-yl]amine;hydrobromide] | 0.82 µM
7 | CN(C)[C@@H]1C(=O)C(C(=O)NCN2CCCC2)C(=O)[C@@]2(O)C(=O)C3C(=O)c4c(O)cccc4[C@@](C)(O)C3CC12 (stereo partly drawn) [(2Z,4S,6S,12aS)-4-(dimethylamino)-6,10,11,12a-tetrahydroxy-2-[hydroxy-(1-pyrrolidinylmethylamino)methylidene]-6-methyl-4,4a,5,5a-tetrahydrotetracene-1,3,12-trione] | 14.3 µM
8 | COc1cc(CN=Nc2nn3cnnc3c3ccccc23)ccc1O [(4E)-2-methoxy-4-[[2-([1,2,4]triazolo[3,4-a]phthalazin-6-yl)hydrazinyl]methylidene]cyclohexa-2,5-dien-1-one] | 1.07 µM
9 | O=c1c2c(n3nnnc3n1Cc1ccccc1)-c1ccccc1CC21CCCC1 [MLS000030575] | 5.52 µM
10 | Clc1nc(NCc2cccnc2)nc(N2CCOCC2)n1 [MLS000121154] | 8.51 µM
11 | Clc1ccc2c(N=NCc3ccccc3Br)ccnc2c1 [MLS000336087] | 9.57 µM
12 | O=S1(=O)N=C(N(CCO)N=Cc2ccncc2)c2ccccc21 [MLS000682942] | 11.8 µM
13 | OCCN1CCN(CCCc2c3c(cc4c2CCC4)CCC3)CC1 [MLS000698424] | 15.5 µM
14 | COc1cccc2c(SCC(=O)NN=Cc3ccc(O)cc3O)cc(C)nc12 [N'-[(E)-(2-hydroxy-4-oxo-1-cyclohexa-2,5-dienylidene)methyl]-2-[(8-methoxy-2-methyl-4-quinolinyl)thio]acetohydrazide] | 9.13 µM
15 | COc1cc(C=NNC(=O)CN(Cc2ccco2)S(=O)(=O)c2ccccc2)ccc1O [N-(2-furanylmethyl)-N-[2-[[(E)-(3-methoxy-4-oxo-1-cyclohexa-2,5-dienylidene)methyl]hydrazo]-2-oxoethyl]benzenesulfonamide] | 7.81 µM
16 | COc1cccc(CN=Nc2nn3cnnc3c3ccccc23)c1 [N-[1-(3-Methoxy-phenyl)-meth-(E)-ylidene]-N'-[1,2,4]triazolo[3,4-a]phthalazin-6-yl-hydrazine] | 0.98 µM
17 | Clc1ccc2c(N=NCc3ccc(Br)cc3)ccnc2c1 [N-[(4-bromophenyl)methylideneamino]-7-chloranyl-quinolin-4-amine] | 20.9 µM
18 | Cc1cccc(OCC(=O)NCC(=O)NN=Cc2cc(Br)ccc2OCc2ccccc2)c1 [N-[(5-bromanyl-2-phenylmethoxy-phenyl)methylideneamino]-2-[2-(3-methylphenoxy)ethanoylamino]ethanamide] | 5.53 µM

same assay, conditions: inactive by the depositor's call

Row | SMILES | EC50
19 | Cc1ccc(C)n1-c1cccc(C(=O)O)c1 | 49.5 µM
20 | O=C(Nc1ccc2nc(-c3ccco3)c(-c3ccco3)nc2c1)N1CCCCCC1 | 33.3 µM
21 | CN1CCN(C2=C(Cl)C(=O)C(c3cnc(N4CCCCC4)s3)=C(Cl)C2=O)CC1 | 3.42 µM
22 | CCOC(=O)c1ccc(Nc2nc(C(=O)OCC)nc3ccccc23)cc1 | 2.18 µM
23 | CCOCCCn1c(N)c(C(=O)Nc2sc3c(c2C(=O)OC)CCCC3)c2nc3ccccc3nc21 | 1.28 µM
24 | O=S1(=O)N=C(N(CCO)N=C/C=C/c2ccccc2)c2ccccc21 | 11.7 µM
25 | CCOC(=O)c1c2c3c(cccc3[nH]c1=O)C(=O)c1ccccc1-2 | 3.53 µM
26 | CCN(CC)c1ccc(-c2nn3c(-c4ccccc4OC)nnc3s2)cc1 | 21.7 µM
27 | O=C(NCc1ccccc1)c1ccc2nc(-c3ccco3)c(-c3ccco3)nc2c1 [2,3-bis(furan-2-yl)-N-(phenylmethyl)quinoxaline-6-carboxamide] | 20.6 µM
28 | O=C(Nc1ccccc1)c1ccc2nc(-c3ccco3)c(-c3ccco3)nc2c1 [2,3-di-2-furyl-N-phenyl-6-quinoxalinecarboxamide] | 33.8 µM
29 | O=C(COc1ccccc1)N1CCN(c2ncnc3c2cnn3-c2ccccc2)CC1 [2-Phenoxy-1-[4-(1-phenyl-1H-pyrazolo[3,4-d]pyrimidin-4-yl)-piperazin-1-yl]-ethanone] | 19.2 µM
30 | Cc1cccc(C=NN(CCO)C2=NS(=O)(=O)c3ccccc32)c1 [2-[(1,1-dioxo-1,2-benzothiazol-3-yl)-[(3-methylphenyl)methylideneamino]amino]ethanol] | 38.7 µM
31 | Cc1cc(OCc2cn3cccnc3n2)ccc1Cl [2-[(4-chloranyl-3-methyl-phenoxy)methyl]imidazo[1,2-a]pyrimidine] | 17.3 µM
32 | O=S1(=O)N=C(N(CCO)N=Cc2ccccc2)c2ccccc21 [2-[(benzylideneamino)-(1,1-dioxo-1,2-benzothiazol-3-yl)amino]ethanol] | 12.8 µM
33 | O=C(CSc1ccc2nnc(-c3ccccn3)n2n1)Nc1nccs1 [2-[[3-(2-pyridinyl)-[1,2,4]triazolo[4,3-b]pyridazin-6-yl]thio]-N-(2-thiazolyl)acetamide] | 5.54 µM
34 | O=C(NCCCN1CCN(CCCNC(=O)c2cc([N+](=O)[O-])ccc2Cl)CC1)c1cc([N+](=O)[O-])ccc1Cl [2-chloranyl-N-[3-[4-[3-[(2-chloranyl-5-nitro-phenyl)carbonylamino]propyl]piperazin-1-yl]propyl]-5-nitro-benzamide] | 43.4 µM
35 | Cc1nc2ncccn2c1-c1csc(Nc2ccccc2)n1 [4-(2-methyl-3-imidazo[1,2-a]pyrimidinyl)-N-phenyl-2-thiazolamine] | 1.38 µM
36 | COc1ccccc1-n1c(-c2ccc(Cl)cc2)c[nH]c1=S [4-(4-chlorophenyl)-3-(2-methoxyphenyl)-1H-imidazole-2-thione] | 11.4 µM
37 | Cc1cc(C)nc(SCc2cc(=O)c(OC(=O)c3ccc(Cl)c([N+](=O)[O-])c3)co2)n1 [4-chloro-3-nitrobenzoic acid [6-[[(4,6-dimethyl-2-pyrimidinyl)thio]methyl]-4-oxo-3-pyranyl] ester] | 1.51 µM
38 | COc1ccc(C2=Nn3c(nnc3-c3ccco3)SC2)cc1OC [6-(3,4-Dimethoxy-phenyl)-3-furan-2-yl-7H-[1,2,4]triazolo[3,4-b][1,3,4]thiadiazine] | 1.15 µM
39 | COc1ccc(C2=Nn3c(nnc3-c3ccccn3)SC2)cc1OC [6-(3,4-dimethoxyphenyl)-3-(2-pyridinyl)-7H-[1,2,4]triazolo[3,4-b][1,3,4]thiadiazine] | 6.18 µM
40 | CN(N=C/C=C/c1ccccc1)C1=NS(=O)(=O)c2ccccc21 [(1E,2E)-3-phenylacrylaldehyde (1,1-dioxido-1,2-benzisothiazol-3-yl)(methyl)hydrazone] | 1.94 µM

Row | SMILES | EC50
41 | Cc1cc(-c2nnc3n2N=C(c2ccc(-c4ccccc4)cc2)CS3)[nH]n1 [MLS000082991] | 36.4 µM
42 | O=C1NC(=O)C2(Cc3c(nc4ccccn4c3=O)N3CCCCCC32)C(=O)N1Cc1ccccc1 (stereo unspecified) [MLS000083668] | 18.2 µM
43 | Cc1cc2n(c1)CCn1c(C)ccc1-2 [MLS000104384] | 11.8 µM
44 | O=C(Nc1ccncc1)c1cc2ccccc2o1 [MLS000109378] | 62.1 µM
45 | CCOC(=O)C1CCN(C(=O)Nc2ccc3nc(-c4ccco4)c(-c4ccco4)nc3c2)CC1 [MLS000113285] | 46.4 µM
46 | Cc1cc(C)cc(NS(=O)(=O)c2ccc3c(c2)c(=O)n(C)c(=O)n3C)c1 [MLS000521783] | 17.4 µM
47 | COCCCn1c(N)c(C(=O)Nc2sc3c(c2C(=O)OC)CCCC3)c2nc3ccccc3nc21 [MLS000595323] | 1.39 µM
48 | COc1ccc(C)cc1-n1c(=O)c2ccccc2c2ccccc2c1=O [MLS000682999] | 15.6 µM
49 | Cc1ccnc(SCc2cc(=O)c(OC(=O)c3ccc(Cl)c([N+](=O)[O-])c3)co2)n1 [MLS000696790] | 6.62 µM
50 | CCOC(=O)c1c(O)nc2ccc(Cl)c3c2c1-c1ccccc1C3=O [MLS000704595] | 1.32 µM
51 | Cc1ccc(OCc2cn3cccnc3n2)cc1 [MLS000723172] | 30.6 µM
52 | COc1ccccc1-n1c(-c2ccccc2)c[nH]c1=S [MLS001007615] | 32.1 µM
53 | c1ccc(Nc2cccc(Nc3ccccc3)n2)cc1 [N,N'-diphenyl-2,6-pyridinediamine] | 7.82 µM
54 | CC(=O)c1ccc(NC(=O)c2ccc3nc(-c4ccco4)c(-c4ccco4)nc3c2)cc1 [N-(4-acetylphenyl)-2,3-di-2-furyl-6-quinoxalinecarboxamide] | 33.7 µM
55 | COc1ccc(CCNC(=O)c2ccc3nc(-c4ccco4)c(-c4ccco4)nc3c2)cc1OC [N-[2-(3,4-dimethoxyphenyl)ethyl]-2,3-di-2-furylquinoxaline-6-carboxamide] | 52.4 µM
56 | Cc1ccc(C=NN(C)C2=NS(=O)(=O)c3ccccc32)o1 [N-methyl-N-[(5-methyl-2-furanyl)methylideneamino]-1,1-dioxo-1,2-benzothiazol-3-amine] | 7.38 µM
57 | CSc1nnc2c3cc(C)ccc3n(Cc3ccccc3)c2n1 [SMR000046397] | 30.7 µM
58 | c1ccc(-c2nc(N3CCCCCC3)c3ccccc3n2)nc1 [SMR000046752] | 16.7 µM
59 | O=C(Nc1ccc2nc(-c3ccco3)c(-c3ccco3)nc2c1)NC1CC1 [SMR000118524] | 45.1 µM
60 | C#CCn1cc(C=C2C(=O)c3ccccc3C2=O)c2ccccc21 [SMR000196125] | 17.8 µM
61 | CN(N=Cc1cccnc1)C1=NS(=O)(=O)c2ccccc21 [SMR000207578] | 20 µM
